Laboratory results published in patent publication US12606548B2, “Fungicidal oxadiazoles” (FMC CORPORATION, priority 2019, dated 2026).
Marks after values point to notes of the source that are not given here.

Columns and labels:
Assay type in all cases: in vivo
Phakopsora pachyrhizi = test: Test A: test suspension sprayed on soybean seedlings, inoculated next day with Phakopsora pachyrhizi (Asian soybean rust), visual disease rating; settings: for Test A rating (% disease control): relative to the controls
Excerpt: General protocol for preparing test suspensions for Tests A-C: the test compounds were first dissolved in acetone in an amount equal to 3% of the final volume and then suspended at the desired concentration (in ppm) in acetone and purified water (50/50 mix by volume) containing 250 ppm of the surfactant PEG400 (polyhydric alcohol esters). The resulting test suspensions were then used in Tests A-C. The test suspension was sprayed to the point of run-off on soybean seedlings. The following day the seedlings were inoculated with a spore suspension of Phakopsora pachyrhizi (the causal agent of Asian soybean rust) and incubated in a saturated atmosphere at 22° C., for 24 h and then moved to a growth chamber at 22° C., for 8 days, after which time visual disease ratings were made. […] A dash (-) indicates the compound was not tested. The test suspensions were sprayed at the concentration listed in the column “Rate in ppm”, unless otherwise indicated.

Zymoseptoria tritici = test: Test B: test suspension sprayed on wheat seedlings, inoculated next day with Zymoseptoria tritici (wheat leaf blotch), visual disease rating; settings: for Test B rating (% disease control): relative to the controls
Excerpt: General protocol for preparing test suspensions for Tests A-C: the test compounds were first dissolved in acetone in an amount equal to 3% of the final volume and then suspended at the desired concentration (in ppm) in acetone and purified water (50/50 mix by volume) containing 250 ppm of the surfactant PEG400 (polyhydric alcohol esters). The resulting test suspensions were then used in Tests A-C.
The test suspension was sprayed to the point of run-off on wheat seedlings. The following day the seedlings were inoculated with a spore suspension of Zymoseptoria tritici (the causal agent of wheat leaf blotch) and incubated in a saturated atmosphere at 24° C., for 48 h, and then moved to a growth chamber at 20° C., for 17 days, after which time visual disease ratings were made.
Results for Tests A-C are given in Table A. In the Table, a rating of 100 indicates 100% disease control and a rating of 0 indicates no disease control (relative to the controls). A dash (-) indicates the compound was not tested. The test suspensions were sprayed at the concentration listed in the column “Rate in ppm”, unless otherwise indicated. An asterisk “*” next to the rating indicates a 250 ppm test suspension was used, a double asterisk “**” next to the rating indicates a 100 ppm test suspension was used, and a triple asterisk “***” next to the rating indicates a 50 ppm test suspension was used.

[1] = system: Puccinia recondita f. sp. tritici; test: Test C: test suspension sprayed on wheat seedlings, inoculated next day with Puccinia recondita f. sp. tritici (wheat leaf rust), visual disease rating; settings: for Test C rating (% disease control): relative to the controls
Excerpt: General protocol for preparing test suspensions for Tests A-C: the test compounds were first dissolved in acetone in an amount equal to 3% of the final volume and then suspended at the desired concentration (in ppm) in acetone and purified water (50/50 mix by volume) containing 250 ppm of the surfactant PEG400 (polyhydric alcohol esters). The resulting test suspensions were then used in Tests A-C. The test suspension was sprayed to the point of run-off on wheat seedlings. The following day the seedlings were inoculated with a spore suspension of Puccinia recondita f. sp. tritici; (the causal agent of wheat leaf rust) and incubated in a saturated atmosphere at 20° C., for 24 h, and then moved to a growth chamber at 20° C., for 6 days, after which time visual disease ratings were made. […] A dash (-) indicates the compound was not tested. The test suspensions were sprayed at the concentration listed in the column “Rate in ppm”, unless otherwise indicated.

Molecule	Test B rating (% disease control) (Zymoseptoria tritici; 250 ppm test suspension)	Test A rating (% disease control) (Phakopsora pachyrhizi; Rate 10 ppm test suspension)	Test C rating (% disease control) ([1]; Rate 10 ppm test suspension)	further results
O=C(NCC(F)F)c1coc(Cc2ccc(-c3noc(C(F)(F)F)n3)cc2)n1 [compound 225]				Test A disease control rating (Phakopsora pachyrhizi; 10 ppm test suspension): 100%; Test B disease control rating (Zymoseptoria tritici; 250 ppm test suspension): 99* %; Test C disease control rating ([1]; 10 ppm test suspension): 100%
OC(c1ccc(-c2noc(C(F)(F)F)n2)cc1)c1cccc(Cl)c1 (racemic) [compound 499]	48* %			Test A rating (% disease control) (Phakopsora pachyrhizi; Rate 250 ppm test suspension): 100%; Test C rating (% disease control) ([1]; Rate 250 ppm test suspension): 100%
methyl 2-[[4-[5-(trifluoromethyl)-1,2,4-oxadiazol-3-yl]-phenoxy]methyl]oxazole-4-carboxylate [Compound 403]				Test A disease control rating (Phakopsora pachyrhizi; 250 ppm test suspension): 100%; Test B disease control rating (Zymoseptoria tritici; 250 ppm test suspension): 93%; Test C disease control rating ([1]; 250 ppm test suspension): 100%
O=C(NCCF)c1coc(Cc2ccc(-c3noc(C(F)(F)F)n3)cc2)n1 [compound 400]	99* %	100%	100%	
O=C(NCCn1cccn1)c1csc(COc2ccc(-c3noc(C(F)(F)F)n3)cc2)n1 [compound 471]	15* %	77%	80%	
Cc1ccccc1C(O)c1ccc(-c2noc(C(F)(F)F)n2)cc1 (racemic) [Compound 497]	5* %	100%	0%	
O=C(NCC=C(Cl)Cl)c1coc(Cc2ccc(-c3noc(C(F)(F)F)n3)cc2)n1 [compound 399]	10* %	100%	99%	
COC(=O)c1coc(COc2ccc(-c3noc(C(F)(F)F)n3)cc2)n1 [Compound 403, methyl 2-[[4-[5-(trifluoromethyl)-1,2,4-oxadiazol-3-yl]-phenoxy]methyl]oxazole-4-carboxylate]	47* %	60%	0%	
O=C(NCCC(F)(F)F)c1csc(Cc2ccc(-c3noc(C(F)(F)F)n3)cc2)n1 [compound 397]	82* %	100%	98%	
CCOC(=O)c1cnn(CN2CCC(c3noc(C(F)(F)F)n3)CC2)c1 [compound 458]	0* %			Test A rating (% disease control) (Phakopsora pachyrhizi; Rate 50 ppm test suspension): 0%; Test C rating (% disease control) ([1]; Rate 50 ppm test suspension): 0%
CCOC(=O)c1csc(COc2ccc(-c3noc(C(F)(F)F)n3)cc2)n1 [compound 404]	0* %	0%	68%	
OC(c1ccc(-c2noc(C(F)(F)F)n2)cc1)c1cccc(F)c1 (racemic) [compound 498]	43* %	100%	0%	
COC(=O)c1coc(Cc2ccc(-c3noc(C(F)(F)F)n3)cc2)c1 [compound 456]	65* %	100%	68%	
methyl 1,2-dihydro-2-oxo-1-[[4-[5-(trifluoromethyl)-1,2,4-oxadiazol-3-yl]phenyl]methyl]-4-pyridinecarboxylate [Compound 24]				Test A disease control rating (Phakopsora pachyrhizi; 270 ppm test suspension): 100%; Test B disease control rating (Zymoseptoria tritici; 270 ppm test suspension): 18%; Test C disease control rating ([1]; 270 ppm test suspension): 100%
